Experimental data from patent US20140243415A1, “COMPOUNDS INHIBITING GALECTIN-1 EXPRESSION, CANCER CELL PROLIFERATION, INVASION, AND TUMORIGENESIS” (ONCOETHIX SA, priority 2011, published 2014).

Tests used:
[1] = tested on: A2780-1A9 ovarian xenografts; test: A2780-1A9 xenograft model; assay type: in vivo
Method: FIG. 6. […] A—The antitumor effects of OTX-008 on A2780-1A9 xenograft were compared to that of active doses of cisplatin and paclitaxel—solid line represents days of treatment. B—Immunohistochemistry of galectin-1, Ki67 (MIB-1) and CD31 on A2780-1A9 xenograft. C—Tumor growth and secondary tumor formation of SQ20B xenografts untreated and treated with 10 mg/kg/day OTX-008 and SQ-shGAL1 xenografts. Tumor volume was determined as 3.14(width2)/length—solid line represents days of treatment. D—Immunohistochemistry of galectin-1, MIB1, VEGFR2 and CD31 on SQ20B xenografts
The immunohistochemical procedure was performed on OCT-embedded subcutaneous tumor stained with H&E, MIB1 ( 1/400, Dako, Glostrup, Denmark), CD31 ( 1/200, Dako), VEGFR2 ( 1/125, Cell Signaling, Saint Quentin Yvelines, France) or galectin-1 (1:20, Abcam, Cambridge, Mass., USA) using an automated immunohistochemical stainer according to the manufacturer's guidelines (streptavidin-peroxidase protocol; Benchmark, Ventana, Tuscon, Ariz., USA). The images were captured and analyzed with a Zeiss observer Z1 microscope. Images quantification was performed using Histolab Software (Microvision, France) subtracting the background. Magnification ×20 and ×40.
A volume containing 8.10^6 A2780-1A9 cancer cells was injected s.c. into the right lateral flank of female nu/nu athymic mice. When tumors become palpable, mice were randomized and treated i.p. with PBS (3 days per week), 5 mg/kg OTX-008 (3 days per week), 6 mg/kg cisplatin (days 1, 8 and 15) or 10 mg/kg taxotere (days 1, 8 and 15). Tumor size was measured three times per week with caliper and tumor volume was calculated as (length×width^2)/2. At the end of the study, animals were sacrificed and tumors collected and frozen in OCT for molecular biology and immunohistochemical analysis. Mouse experiments were approved by the Animal Housing and Experiment Board of the French government.

[2] = tested on: chk1, chk2, and cdc25C; test: chk1, chk2 and cdc25C phosphorylation in SQ20B; assay type: cell-based, human; conditions: OTX-008-treated SQ20B cells
[3] = tested on: p-S6; test: Western blot of signaling in SQ20B cells; assay type: cell-based, human; conditions: 3 μM OTX-008, 10 min to 24 h
Method: (§1) FIG. 3. Effects of OTX-008 on galectin-1 expression and localization. A—Western Blot of galectin-1 on SQ20B cells treated with 3 μM OTX-008 for 24 h, 48 h and 72 h. B and C—Immunofluorescence of galectin-1 on SQ20B cells treated with 3 μM OTX-008 for 24 and 48 h. B—OTX-008 treatment decreases galectin-1 immunostaining in SQ20B cells. C—Galectin-1 translocates into the nucleus after OTX-008 exposure. D—Western Blot of p-AKTser473, AKT, p-S6, p-ERK1/2, ERK and p-PKCα in SQ20B cells treated with 3 μM OTX-008 for 10 min, 1 h, 2 h, 5 h and 24 h.
(§2) Cells were lysed in buffer containing 50 mM HEPES (pH 7.6), 150 mM NaCl, 1% Triton X-100, 2 mM sodium vanadate, 100 mM NaF, and 0.4 mg/ml phenylmethylsulfonyl fluoride. Equal amounts of protein (30 μg/lane) were subjected to SDS-PAGE and transferred to nitrocellulose membranes. Membranes were blocked with 5% milk in 0.05% Tween 20/phosphate-buffered saline and then incubated with the primary antibody overnight. Membranes were then washed and incubated with the secondary antibody conjugated to horseradish peroxidase. Bands were visualized by using the enhanced chemiluminescence Western blotting detection system. Densitometric analysis was performed under conditions that yielded a linear response. The following antibodies were used: anti-p-cdc2 (tyr15), anti-p-wee1 (ser642), anti-p-p44/42 MAPK (thr202/tyr204), anti-p44/42, anti-p-AKT (ser473), anti-AKT, anti-p-S6 (ser235/236) (Cell Signaling, Saint Quentin Yvelines, France), anti-p-PKCα (ser657) (BD Biosciences, Le-Pont-de-Claix, France) and anti-galectin-1 (Abcam, Cambridge, Mass., USA). All antibodies were used at a 1:1000 dilution.
(§3) Intracytoplasmic galectin-1 was previously shown to stabilize intracellular GTP-Ras conformation, facilitating Ras downstream signaling. Signaling events following OTX-008 exposure in SQ20B cells displaying no EGFR, K-Ras, and B-Raf mutation were investigated (FIG. 5A).

[4] = tested on: p-ERK1/2; test: Western blot of signaling in SQ20B cells; assay type: cell-based, human; conditions: 3 μM OTX-008, 10 min to 24 h
Method: as §1, §2, §3

[5] = tested on: p-AKT; test: Western blot of signaling in SQ20B cells; assay type: cell-based, human; conditions: 3 μM OTX-008, 10 min to 24 h
Method: as §1, §2, §3

[6] = tested on: endothelial cell; conditions: endothelial cell proliferation, migration, chick embryo chorioallantoic membrane assays; cited from earlier work
[7] = tested on: cultured fibroblasts; test: Antiproliferative effect in fibroblasts; assay type: cell-based

## CN(C)CCNC(=O)COc1c2cccc1Cc1cccc(c1OCC(=O)NCCN(C)C)Cc1cccc(c1OCC(=O)NCCN(C)C)Cc1cccc(c1OCC(=O)NCCN(C)C)C2 [OTX-008]
[1]; 5 mg/kg OTX-008 i.p., 3 days per week
  tumor growth: Tumor growth inhibition
[1]; 5 mg/kg OTX-008 vs 6 mg/kg cisplatin, 10 mg/kg taxotere
  antitumor effects relative to cisplatin and docetaxel: comparable to that of cisplatin and docetaxel
[1]; A2780-1A9 tumors
  VEGFR-2 expression: decreased expression of VEGFR-2
  number of micro-vessels in tumors: decreased number of micro-vessel
  proliferation as measured by Ki67 expression: significantly reduced
[1]; nude mice
  toxicity at active doses: no toxicity
[1]; vs control
  vessels lumen surface area: significant decrease of the surface of vessels
[1]; vs non treated tumors
  galectin-1 expression in tumors (immunohistochemistry): significant lower galectin-1 expression
[2]
  chk1, chk2, and cdc25C phosphorylation levels: Mild to no changes
[3]
  p-S6: complete and sustained inhibition
[4]
  p-ERK1/2 activity: progressively but sustainably inhibited p-ERK1/2 activity
[5]
  AKT ser473 phosphorylation: transient activation of AKT^s473 followed by a complete and sustained inhibition of p-AKT
[6]
  angiogenesis inhibition in vitro: potent angiogenesis inhibitor
[7]
  antiproliferative effect: no antiproliferative effect
